# Laboratory results published in patent US4769389A, “Oxygenated-alkyl derivatives of glutamic and aspartic acids with antagonistic activity to bio-active polypeptides and a method for their preparation” (priority 1985, dated 1988).
# Like-named read-outs stand apart in the source and are kept apart here.
# What was measured:
# [1] = tested on: normal pancreatic cells; test: Action on growth rate of normal pancreas induced by CCK-8 in hamsters; format: in vivo; settings: for effect on normal pancreatic cells: in words
# Excerpt: (§1) Male hamsters were innoculated in the cheek pouch with a suspension of 1×10^5 tumour cells of a pancreatic adenocarcinoma.
# (§2) Fifteen days after this treatment the animals were killed and the normal pancreas and the pancreatic tumours initiated in the cheek pouch were removed and weighed.
# (§3) The DNA was extracted and measured by conventional methods.
# (§4) The results obtained are given in Table 11 in which they are expressed as average values±S.E.
# [2] = tested on: pancreatitis in mice induced experimentally by cerulein; test: Pancreatitis induced by cerulein in mice; format: in vivo; settings: for ED50: Mus musculus, ip, cerulein, mice
# Protocol: Adult male mice received six injections of cerulein (Takus) (50 mcg/kg) each hour for six hours.
# The compound was administered 30 minutes before each administration of cerulein. Nine hours after the beginning of the treatment, the blood was taken from the rectro-orbitory plexus after anaesthesia with ether, the animals were killed and the pancreas removed and weighed.
# [3] = tested on: pancreatic adenocarcinoma; test: Inhibiting action on rate of growth of a pancreatic adenocarcinoma induced by CCK-8 in hamsters; format: in vivo; settings: for effect on growth of a pancreatic adenocarcinoma: in words
# Excerpt: as §1, §2, §3, §4
# [4] = tested on: guinea-pig gallbladder; test: Anti-CCK activity on guinea-pig gallbladders in vitro (contraction by CCK-8); settings: Cavia porcellus; CCK-8 10 ng/ml; in vitro
# Protocol: ANTI-CCK ACTIVITY ON GUINEA-PIG GALLBLADDERS IN VITRO A longitudinal strip of guinea-pig gallbladder is placed in a bath for isolated organs in Krebs at a temperature of 32° C. and oxygenated continuously with an oxygen-CO2 mixture (95-[…]). The isometric contractions were detected by means of a force transducer and recorded. […] The results obtained are shown in Table 3 which gives the compounds tested and the IC50 values found which were calculated by the method of regression in a test of at least three experiments for each compound studied.
# [5] = in vivo, sc
# [6] = tested on: pancreatitis in rats induced experimentally by taurocholate; test: Pancreatitis induced by sodium taurocolate in rats; format: in vivo; settings: for ED50: Rattus norvegicus, ip, taurocholate, rats
# Protocol: The products under examination were administered intraperitoneally (i.p.) 30 minutes before the operation and 3 hours after the operation. Six hours after the laparatomy the blood was removed from the retro-orbitory plexus after anaesthesia with ether, the animals were killed and the pancreas was removed and weighed. The activity of the serum amylase was determined by the method described above.
# [7] = tested on: colon of rabbits; test: Antispastic activity in the colon of rabbits stimulated with CCK-8; format: in vivo, rabbit; set-up: Antispastic activity in colon, EXPERIMENT 1 / Antispastic activity in colon, EXPERIMENT 2: unit not given here; settings: CCK 100 ng/kg
# Protocol: The abdomen of anaesthetised rabbit is cut open to display the tranverse colon. A small balloon full of water is inserted at an established point and connected to a pressure transducer by means of a polyethylene cannula filled with H2 O.
# The optimum sensitivity being fixed in relation to the physiological contractions, the products were administered through the femeral vein. Contractions were induced by the administration of 100 ng/kg of CCK.
# [8] = Body weight of rats treated daily by mouth for three weeks; format: in vivo
# Protocol: (§5) The following tables give the average values of the food consumption and the average weight of each group of animals calculated weekly as well as the Student t value calculated between the various groups treated and the group of control animals. […] Each group received the drug (compound 1) in the doses indicated for three weeks daily by mouth. The drug in the form of the sodium salt was dissolved in water and administered in a volume of 10 ml of H2 O/kg while the control group received an equal volume of the solvent alone.
# [9] = Tolerability in parenteral administration; settings: i.v. sodium salt in water up to 1.5 percent, 10 ml/kg (150 mg/kg)
# [10] = tested on: guinea pig gall bladders; test: Anti-CCK-8 activity on guinea-pig gallbladders in situ (in vivo); settings: Cavia porcellus, iv; CCK-8 10 ng/kg i.v.; compound i.v.; read-out: ID50, anti-CCK-8 activity in situ
# Protocol: In order to confirm the evidence of the studies in vitro, several of the more interesting compounds were tested in vivo with the use of guinea-pig gallbladders in situ.
# The method used was that described by Ljungberg (Svensk. Farm. Tidskr. 69, 351-354, 1964).
# Guinea-pigs having a weight of about 400 g anaesthetised with urethane were used; the substances being tested were administered intravenously (i.v.) into the jugular vein.
# The responses of the gallbladder to the substances being tested were detected by means of a force transducer and recorded by means of a microdynamometer. 10 ng/kg of CCK 8 were chosen as the optimum contracting dose. The antagonistic compounds tested were administered in increasing doses so as to enable the calculation of an ID50 value, that is the dose (in mg/kg i.v.) having a 50% inhibiting effect against contractions induced by 10 ng/kg i.v. of CCK-8.
# [11] = tested on: digestive tract; test: Antispastic activity, vegetable carbon test (speed of transit through stomach and intestine) in mice; format: in vivo; settings: Mus musculus, ip, read-out: A[…] ED50 (dose which reduces the intestinal transit time of the carbon by 50%), intraperitoneally
# Excerpt: The anti-spastic activity which the present compounds exert on the whole of the digestive tract is also considerable. Measured in mice with the vegetable carbon test (speed of transit through the stomach and intestine) this activity is illustrated in the following table: […]
# [12] = Food consumption in rats treated daily by mouth for three weeks; format: in vivo
# Protocol: as §5
# [13] = compound 1 4 mg/kg + CCK-8 8 mcg/kg
# [14] = CCK-8 8 mcg/kg three times a day
compound,measurement,setting,value
CCCCCN(CCCOC)C(=O)C(CCC(=O)O)NC(=O)c1ccc(Cl)c(Cl)c1 (racemic) [Compound 1],PANCREATIC DNA,[1]; 4 mg/kg i.p. three times a day,0.78 ± 0.03 mg
same,WEIGHT OF THE PANCREAS,[1]; 4 mg/kg i.p. three times a day,351.2 ± 17.2 mg
same,PANCREATIC DNA,[1]; [13],0.83 ± 0.06 mg
same,WEIGHT OF THE PANCREAS,[1]; [13],370.2 ± 12.7 mg
same,effect on normal pancreatic cells,[1],atagonises both these actions of CCK-8 to a highly significant extent
same,AMYLASE IN THE SERUM,[2]; 5 mg/kg ip + cerulein,29.4 U/ml
same,INHIBITION OF WEIGHT INCREASE,[2]; 5 mg/kg ip + cerulein,76.9%
same,INHIBITION OF WEIGHT INCREASE (pancreas),[2]; 5 mg/kg ip + cerulein,42.8%
same,AMYLASE IN THE SERUM,[2]; 7.5 mg/kg ip + cerulein,25.6 U/ml
same,INHIBITION OF WEIGHT INCREASE,[2]; 7.5 mg/kg ip + cerulein,81.6%
same,INHIBITION OF WEIGHT INCREASE (pancreas),[2]; 7.5 mg/kg ip + cerulein,71.4%
same,AMYLASE IN THE SERUM,[2]; 10 mg/kg ip + cerulein,13.2 U/ml
same,INHIBITION OF WEIGHT INCREASE,[2]; 10 mg/kg ip + cerulein,97.1%
same,INHIBITION OF WEIGHT INCREASE (pancreas),[2]; 10 mg/kg ip + cerulein,90.5%
same,ED50,[2]; read-out: ED50 (inhibition of weight increase),4.2 mg/kg
same,ED50,"[2]; read-out: ED50, inhibition of weight increase of the pancreas",5.5 mg/kg
same,TUMORAL DNA,[3]; 4 mg/kg i.p. three times a day,0.42
same,WEIGHT OF THE PANCREATIC CARCINOMA,[3]; 4 mg/kg i.p. three times a day,105.0 ± 4.1 mg
same,TUMORAL DNA,[3]; [13],0.44
same,WEIGHT OF THE PANCREATIC CARCINOMA,[3]; [13],108.8 ± 5.4 mg
same,effect on growth of a pancreatic adenocarcinoma,[3],atagonises both these actions of CCK-8 to a highly significant extent
same,IC50,[4],0.1 µg/mL
same,tissue damage,[5],does not moreover give rise to tissue damage
same,AMYLASE IN THE SERUM,[6]; 5 mg/kg i.p. + taurocholate,10.4 U/ml
same,INHIBITION OF AMYLASE INCREASE,[6]; 5 mg/kg i.p. + taurocholate,47.0%
same,INHIBITION OF WEIGHT INCREASE,[6]; 5 mg/kg i.p. + taurocholate,46.1%
same,AMYLASE IN THE SERUM,[6]; 10 mg/kg i.p. + taurocholate,9.8 U/ml
same,INHIBITION OF AMYLASE INCREASE,[6]; 10 mg/kg i.p. + taurocholate,64.7%
same,INHIBITION OF WEIGHT INCREASE,[6]; 10 mg/kg i.p. + taurocholate,84.6%
same,AMYLASE IN THE SERUM,[6]; 20 mg/kg i.p. + taurocholate,7.8 U/ml
same,INHIBITION OF AMYLASE INCREASE,[6]; 20 mg/kg i.p. + taurocholate,123.5%
same,INHIBITION OF WEIGHT INCREASE,[6]; 20 mg/kg i.p. + taurocholate,107.7%
same,ED50,"[6]; read-out: ED50, inhibition of amylase increase",7.3 mg/kg
same,ED50,"[6]; read-out: ED50, inhibition of weight increase",6.9 mg/kg
same,"Antispastic activity in colon, EXPERIMENT 1",[7]; 0.3 mg/kg i.v.,-20.8
same,"Antispastic activity in colon, EXPERIMENT 2",[7]; 0.3 mg/kg i.v.,-34.1
same,"Antispastic activity in colon, EXPERIMENT 1",[7]; 1 mg/kg i.v.,-48.9
same,"Antispastic activity in colon, EXPERIMENT 2",[7]; 1 mg/kg i.v.,-55.6
same,"Antispastic activity in colon, EXPERIMENT 1",[7]; 3 mg/kg i.v.,-100.0
same,"Antispastic activity in colon, EXPERIMENT 2",[7]; 3 mg/kg i.v.,-87.8
same,ED50,"[7]; Oryctolagus cuniculus, iv",1.24 mg/kg
same,body weight,"[8]; 0.625 mg/kg os, 1st week",216.9 ± 3.8 g
same,body weight,"[8]; 0.625 mg/kg os, 2nd week",267.5 ± 3.9 g
same,body weight,"[8]; 0.625 mg/kg os, 3rd week",324 ± 3.6 g
same,body weight,"[8]; 0.625 mg/kg os, time 0",169.3 ± 1.9 g
same,body weight,"[8]; 1.25 mg/kg os, 1st week",242.7 ± 4.9 g
same,body weight,"[8]; 1.25 mg/kg os, 2nd week",318.3 ± 4.4 g
same,body weight,"[8]; 1.25 mg/kg os, 3rd week",371 ± 5.6 g
same,body weight,"[8]; 1.25 mg/kg os, time 0",168.3 ± 1.1 g
same,body weight,"[8]; 2.5 mg/kg os, 1st week",241.6 ± 3.7 g
same,body weight,"[8]; 2.5 mg/kg os, 2nd week",325.2 ± 5.5 g
same,body weight,"[8]; 2.5 mg/kg os, 3rd week",374.9 ± 5.1 g
same,body weight,"[8]; 2.5 mg/kg os, time 0",165.8 ± 1.3 g
same,weight increase compared with control animals,"[8]; all treated groups, from the first week, in words",significantly higher weight increase than the control animals
same,haemolysis,[9],without causing haemolysis
same,ED50,[10],0.11 mg/kg
same,ED50,[11],12.8 mg/kg
same,increase in the food consumption compared with the controls,[12]; 0.625 mg/kg daily,about 20%
same,Food consumption,"[12]; 0.625 mg/kg os, 1st week",187.1 ± 6.3 g/week
same,Food consumption,"[12]; 0.625 mg/kg os, 2nd week",220 ± 3.9 g/week
same,Food consumption,"[12]; 0.625 mg/kg os, 3rd week",242.5 ± 3.3 g/week
same,Food consumption,"[12]; 1.25 mg/kg os, 1st week",205 ± 4.6 g/week
same,Food consumption,"[12]; 1.25 mg/kg os, 2nd week",217.5 ± 3.8 g/week
same,Food consumption,"[12]; 1.25 mg/kg os, 3rd week",253.5 ± 2.4 g/week
same,Food consumption,"[12]; 2.5 mg/kg os, 1st week",209.2 ± 3.3 g/week
same,Food consumption,"[12]; 2.5 mg/kg os, 2nd week",222.2 ± 2.6 g/week
same,Food consumption,"[12]; 2.5 mg/kg os, 3rd week",270.7 ± 4.5 g/week
same,increase in the food consumption compared with the controls,"[12]; other doses tested (1.25, 2.5 mg/kg)",about 30%
CCK-8: biologically active component of the hormone cholecystokinin [reference compound],PANCREATIC DNA,[1]; [14],1.5 ± 0.06 mg
same,WEIGHT OF THE PANCREAS,[1]; [14],634.8 ± 20.8 mg
same,effect on normal pancreatic cells,[1],has a trophic action on normal pancreatic cells
same,TUMORAL DNA,[3]; [14],0.7
same,WEIGHT OF THE PANCREATIC CARCINOMA,[3]; [14],163.1 ± 4.7 mg
same,effect on growth of a pancreatic adenocarcinoma,[3],stimulates the growth of a pancreatic adenocacinoma
